Assay results taken from patent publication US20100305161A1, “COMBINATIONS OF FUNGICIDAL AZOLES AND PYRION COMPOUNDS” (priority 2007, published 2010).

Experiments:
Experiment in all cases: Poison Plate Assay, MIC and synergy of combinations
Format in all cases: cell-based
[1] = tested on: Ulocladium atrum IMI214699a; settings: Alternaria atra, 336 h, ppm total active ingredient, growth evaluated after two weeks, 27° C., 70% relative humidity, read-out: MIC-values (minimum inhibitory concentration)
Procedure: (§1) • Test models: Fungi: to each well of a 24-well microtiter plate, 1000 μl of a rich (Potato Dextrose Agar, PDA: 4 g potato infusion, 20 g bacto dextrose and 15 g bacto agar in 1 liter deionised water) or poor (Glucose Agar, GA: 10 g glucose, 1.5 g K2HPO4, 2 g KH2PO4, 1 g (NH4)2SO4, 0.5 g MgSO4 and 12.5 g agar in 1 liter deionised water) medium containing the appropriate combination of the test compounds in one of the concentrations of a dose series is added. The nutrient medium is inoculated with the test fungi by adding a spore/mycelium suspension (10 μl) or a small piece of agar from the margin of an actively growing colony and incubated under dark at 27° C. with 70% relative humidity. The growth of the fungi is evaluated after two weeks. • Bacteria: to each well of a 24-well microtiter plate, 1000 μL Tryptose Agar (TA, 20 g bacto tryptose agar, 5 g sodium chloride, 1 g bacto dextrose and 15 g agar in 1 liter deionised water), containing the test compounds in one of the concentrations of a dose series is added. The nutrient medium is inoculated by adding 10 μl of an actively growing liquid culture of the test bacteria in tryptose broth (without agar), and incubated under dark at 27° C. with 70% relative humidity.
A. G. Nass (1957) “Some aspects of the notions additivity, synergism and antagonism in the simultaneous activity of two antibacterial agents in vitro” Arch. intern. […]

[2] = tested on: Coriolus versicolor CTB863A; settings: Trametes versicolor, 336 h, ppm total active ingredient, growth evaluated after two weeks, 27° C., 70% relative humidity, read-out: MIC-values (minimum inhibitory concentration)
Procedure: as §1
(§2) When the Synergy Index is greater than 1.0, antagonism is indicated. When the SI is equal to 1.0, additivity is indicated.

[3] = tested on: Chaetomium globosum ATCC6205; settings: ATCC6205, 336 h, ppm total active ingredient, growth evaluated after two weeks, 27° C., 70% relative humidity, read-out: MIC-values (minimum inhibitory concentration)
Procedure: as §1, §2

Structure (SMILES) | MIC [1] | MIC [2] | MIC [3]
CCCC1COC(Cn2cncn2)(c2ccc(Cl)cc2Cl)O1 (stereo not shown) [(I-m) + (II-a) 100 + 0, 1-[[2-(2,4-dichlorophenyl)-4-propyl-1,3-dioxolan-2-yl]methyl]-1H-1,2,4-triazole] | 33.3 µg/mL | 1.88 µg/mL | 5.01 µg/mL
[O-][n+]1ccccc1SSc1cccc[n+]1[O-] [(I-n) + (II-g) 0 + 100, pyrion disulfide] | 1.88 µg/mL | – | –
